Source: patent US10759774B2, “Inhibitors of hepatitis B virus targeting capsid assembly” (THE CURATORS OF THE UNIVERSITY OF MISSOURI, priority 2017, dated 2020)

Legend:
HBV [1] = conditions: rodent models; cited from earlier work
[2] = high doses; cited from earlier work
[3] = system: primary human hepatocytes; conditions: cited from earlier work
HepAD38 cells = assay: Cytotoxicity with the XTT assay (Table 1)
[4] = Cytotoxicity with the XTT assay (Table 1); conditions: human, HepAD38 cells
HBV [5] = assay: Antiviral screening / dose response, total intracellular HBV DNA by qPCR in HepAD38 cells; assay type: cell-based, hepatitis B virus (HBV)
Method: HepAD38 cells (ATCC; Ladner, et al., Antimicrob. Agents Chemother. 41:1715-1720, 1997) were maintained in tet media [Dulbecco's Modified Eagle Medium (DMEM) and 10% fetal bovine serum (FBS) plus 0.4 μg/ml tetracycline (tet) and 400 μg/ml G418 (Gibco; Gaithersburg, Md.)]. Cells were incubated at 37° C. with 5% CO2.
Total DNA from HBV-infected cells was extracted using the QIAamp DNA Blood Mini Kit (Qiagen, Germantown, Md.). […] Amplification was conducted by denaturation at 95° C. for 10 min, followed by 40 cycles of denaturation at 95° C. for 15 s and annealing/extension at 60° C. for 1 min using PerfeCTa SYBR® Green FastMix reaction cocktail (Quanta Biosciences, Beverly, Mass.). Amplification was carried out in a PIKOREAL™ Real-Time PCR System. A standard curve was generated with dilutions of the HBV genome-containing plasmid pCMV-HBV-LE-II (Tavis, et al., PLoS Pathogens 9:e1003125, 2013).
(§1) HepAD38 cells (5×10^4) were plated in 96-well plates in tet media. The next day, cells were washed 2× with PBS, and the media was replaced with complete media (DMEM, 10% FBS) containing compounds. Fresh complete media with compounds was added again after 2 days. After 2 additional days, cells were washed with PBS, trypsinized, and pelleted by centrifugation. The cell pellet was resuspended in 200 μl PBS, and DNA was extracted and analyzed as above. For dose responses, values were plotted in GraphPad Prism 5 and analyzed with the log (inhibitor) vs. normalized response—variable slope equation.
For antiviral screening, HepAD38 cells were treated with 10 μM of each hit compound, and anti-HBV activity was determined by the level of viral DNA.

HBV Cp I105V mutant = assay: HBV core-associated DNA by qPCR in Huh7 cells transfected with Cp mutant plasmid; assay type: cell-based, hepatitis B virus (HBV); conditions: single dose: DVR-56 250 nM, ZW-935 250 nM, HF9C6 4 μM
From the text: (§2) The binding site for HAPs and SBAs has been found using X-ray crystallography and mutagenesis techniques. […] To probe this binding site, HBV-expressing plasmids with mutations in Cp (Y118F, T109S, T109M, T109I, I105V, I105L, and I105T) were generated (Klumpp, et al., Proc. Natl. Acad. Sci. USA 112:15196-15201, 2015).

HBV Cp T109S mutant = assay: as above; assay type: cell-based, hepatitis B virus (HBV); conditions: single dose: Bay 38-7690 500 nM, DVR-56 250 nM, ZW-935 250 nM, HF9C6 4 μM
From the text: as §2

HBV Cp T109I mutant = assay: as above; assay type: cell-based, hepatitis B virus (HBV); conditions: single dose: Bay 38-7690 500 nM, DVR-56 250 nM, ZW-935 250 nM, HF9C6 4 μM
From the text: as §2

[6] = Cytotoxicity, Cell Proliferation Kit II (XTT) (Table 2); assay type: cell-based; conditions: human, HepG2 cells
HBV [7] = assay: Cell-based anti-HBV activity of HF9C6 analogs (Table 2; HBV DNA in HepAD38 cells); conditions: Hepatitis B virus, Table 2, cell-based, read-out: EC50
Method: as §1
HepAD38 cells were seeded in 96-well plates (3×10^4 cells/well) in tet media. […] After 2 days, the media was removed, and fresh media containing compounds was added. After 2 additional days, cells were washed with PBS and lysed with 10 mM Tris (pH 7.5), 1mM EDTA, 100mM NaCl, 1% NP-40 at 37° C. for 30 min. 60 μl of lysate was added to 60 μl of 1 M NaOH, 1.5 M NaCl and incubated at RT for 5 min to denature DNA. 120 μl of 1 M Tris (pH 7.4), 2 M NaCl was added. Samples were transferred to positively charged nylon membranes (Roche) using a vacuum dot blot manifold. The wells were washed with 200 μl of 20× SSC (3M NaCl, 300 mM sodium citrate), and the DNA was UV crosslinked to the membranes. […] Membranes were incubated with CDP-STAR® chemiluminescent substrate (Roche), imaged by chemiluminescence, and quantified by densitometry. Values were plotted in GraphPad Prism 5 and analyzed with the log (inhibitor) vs. normalized response—variable slope equation.

HBV capsid protein (Cp) [8] = molecular target: T1, HBV capsid protein (Cp) (Hepatitis B virus genotype D subtype ayw, UniProt P03146); conditions: HepAD38 cells; concentrations up to 20 μM (~5×EC50)
[9] = molecular target: T2, C1502 (HBV capsid protein assembly domain dimer) (Hepatitis B virus genotype D subtype adw, UniProt P03147, R150C); assay: In vitro capsid assembly analyzed by transmission electron microscopy (TEM); assay type: biochemical; conditions: C1502 10 μM assembled with compound 20 μM
T2 construct: the 149 amino acid assembly domain of HBV capsid protein; made in house; host or cells: E. coli BL21 (DE3), pET11a
From the text: Capsids assembled in the presence of the carrier DMSO were spherical, ˜40 nm in diameter, and dispersed across the TEM grid.

HBV wild-type (WT) Cp = assay: HBV core-associated DNA by qPCR in Huh7 cells transfected with wild-type plasmid; assay type: cell-based, hepatitis B virus (HBV); conditions: Bay 38-7690 500 nM, DVR-56 250 nM, ZW-935 250 nM, HF9C6 4 μM
HBV capsid protein (Cp) [10] = molecular target: T1, HBV capsid protein (Cp); conditions: HepAD38 cells; 20 μM

COC(=O)C1=C(C)NC(c2ncc(F)cc2F)=N[C@H]1c1ccc(F)cc1Cl [Bay 41-4109]
inhibition of the virus replication cycle (HBV [1]): inhibit the virus replication cycle | hepatotoxicity [2]: hepatotoxic

CCOC(=O)C1=C(CN2CCOCC2)NC(c2nccs2)=NC1c1ccc(F)cc1Br (stereo not drawn) [GLS-4, morphothiadine mesilate]
toxicity to primary human hepatocytes [3]: much less toxic

Cc1c(C(=O)Nc2ccccc2)sc(N)c1C(N)=O [HF9C6]
cytotoxicity (in words) (HepAD38 cells): no observable cytotoxicity | CC50 [4]: > 300 µM | SI (Selectivity Index) (HBV [5]; CC50/EC50, Table 1): >83 | reduction of HBV DNA (HBV [5]; HepAD38 cells treated with 10 μM, vs DMSO control): ~80% | EC50 (HBV [5]; Hepatitis B virus, HepAD38 cells, total intracellular HBV DNA as marker, Table 1): 3.6 ± 0.2 µM | resistance profile, I105V mutant (HBV Cp I105V mutant): does not impart significant resistance | resistance profile, T109S mutant (HBV Cp T109S mutant): resistance | resistance profile, T109I mutant (HBV Cp T109I mutant): hypersusceptibility | CC50 [6]: > 100 µM | EC50 (HBV [7]): 34 ± 0.6 µM | Cp levels (Western blot) (HBV capsid protein (Cp) [8]): did not reduce Cp levels | capsid morphology by TEM [9]: heterogeneous in shape and size, and formed large aggregates on the grid | suppression of viral DNA production (HBV wild-type (WT) Cp): 75% | Cp distribution/aggregation in cells (HBV capsid protein (Cp) [10]): concentrated in large foci throughout the cell | Cp nuclear localization (HBV capsid protein (Cp) [10]): excluded from the nucleus
